Test results from the supplement of paper PMC10307832.

Assays:
Experiment in all cases: relative viability (nuclei count vs DMSO), 5 days (fraction); higher = more cells survive
AZ505 + Foretinib = compound: C1CCC(CC1)N(CCNCCC2=C3C(=C(C=C2)O)NC(=O)CO3)C(=O)CCNCCC4=CC(=C(C=C4)Cl)Cl [AZ505] + COc1cc2c(Oc3ccc(NC(=O)C4(C(=O)Nc5ccc(F)cc5)CC4)cc3F)ccnc2cc1OCCCN1CCOCC1 [Foretinib] (partner 0.25 µM)
How it was run: (§1)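 Five library-drug doses in √10 steps were combined with a fixed anchor-drug dose, or a single drug was given alone, by pin tool to lung cancer cell lines in 1536-well plates the day after seeding. Nuclei were stained and counted after 5 days. Relative viability is the nuclei count in treated wells over that in vehicle wells, taken as the median of duplicate plates.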

Dactolisib + Trametinib = compound: Cn1c(=O)n(-c2ccc(C(C)(C)C#N)cc2)c2c3cc(-c4cnc5ccccc5c4)ccc3ncc21 [Dactolisib] + CC(=O)Nc1cccc(-n2c(=O)n(C3CC3)c(=O)c3c(Nc4ccc(I)cc4F)n(C)c(=O)c(C)c32)c1 [Trametinib] (partner 0.02 µM)
How it was run: as §1

AZ505 + Vorinostat = compound: C1CCC(CC1)N(CCNCCC2=C3C(=C(C=C2)O)NC(=O)CO3)C(=O)CCNCCC4=CC(=C(C=C4)Cl)Cl [AZ505] + O=C(CCCCCCC(=O)Nc1ccccc1)NO [Vorinostat] (partner 1 µM)
How it was run: as §1

Dactolisib + Navitoclax = compound: Cn1c(=O)n(-c2ccc(C(C)(C)C#N)cc2)c2c3cc(-c4cnc5ccccc5c4)ccc3ncc21 [Dactolisib] + CC1(C)CCC(c2ccc(Cl)cc2)=C(CN2CCN(c3ccc(C(=O)NS(=O)(=O)c4ccc(N[C@H](CCN5CCOCC5)CSc5ccccc5)c(S(=O)(=O)C(F)(F)F)c4)cc3)CC2)C1 [Navitoclax] (partner 0.5 µM)
How it was run: as §1

Cell Line | relative viability (AZ505 + Foretinib; first compound 0.08 µM) | relative viability (AZ505 + Foretinib; first compound 0.253 µM) | relative viability (AZ505 + Foretinib; first compound 0.8 µM) | relative viability (AZ505 + Foretinib; first compound 2.53 µM) | relative viability (AZ505 + Foretinib; first compound 8 µM) | relative viability (Dactolisib + Trametinib; first compound 0.002 µM) | relative viability (Dactolisib + Trametinib; first compound 0.006325 µM) | relative viability (Dactolisib + Trametinib; first compound 0.02 µM) | relative viability (Dactolisib + Trametinib; first compound 0.06325 µM) | relative viability (Dactolisib + Trametinib; first compound 0.2 µM) | relative viability (AZ505 + Vorinostat; first compound 0.08 µM) | relative viability (AZ505 + Vorinostat; first compound 0.253 µM) | relative viability (AZ505 + Vorinostat; first compound 0.8 µM) | relative viability (AZ505 + Vorinostat; first compound 2.53 µM) | relative viability (AZ505 + Vorinostat; first compound 8 µM) | relative viability (Dactolisib + Navitoclax; first compound 0.002 µM) | relative viability (Dactolisib + Navitoclax; first compound 0.006325 µM) | relative viability (Dactolisib + Navitoclax; first compound 0.02 µM) | relative viability (Dactolisib + Navitoclax; first compound 0.06325 µM) | relative viability (Dactolisib + Navitoclax; first compound 0.2 µM)
LOU-NH91 | 0.872 | 0.931 | 0.909 | 0.869 | 0.968 | 0.778 | 0.714 | 0.679 | 0.557 | 0.612 | 0.837 | 0.855 | 0.91 | 0.856 | 0.908 | 0.547 | 0.6 | 0.646 | 0.431 | 0.385
NCI-H358 | 0.573 | 0.732 | 0.629 | 0.549 | 0.59 | 0.123 | 0.149 | 0.124 | 0.104 | 0.106 | 0.665 | 1.03 | 0.834 | 0.633 | 0.69 | – | – | – | – | –
NCI-H522 | – | – | – | – | – | 0.69 | 0.678 | 0.921 | 0.504 | 0.512 | 0.688 | 0.909 | 0.927 | 0.874 | 0.818 | – | – | – | – | –
NCI-H650 | 1.01 | 1.14 | 1.06 | 1.08 | 1.01 | 1.04 | 0.906 | 0.942 | 0.527 | 0.424 | 0.395 | 0.425 | 0.348 | 0.567 | 0.556 | – | – | – | – | –
NCI-H661 | 1 | 1.02 | 0.981 | 0.984 | 0.999 | 0.552 | 0.483 | 0.486 | 0.336 | 0.337 | 0.744 | 0.818 | 0.797 | 0.75 | 0.888 | – | – | – | – | –
NCI-H1299 | 1.01 | 1.03 | 0.987 | 1.1 | 1.1 | – | – | – | – | – | – | – | – | – | – | 1.06 | 1.1 | 1.08 | 0.986 | 1.03
NCI-H1563 | 0.928 | 0.965 | 0.902 | 0.866 | 0.93 | – | – | – | – | – | – | – | – | – | – | – | – | – | – | –
NCI-H1623 | 0.76 | 0.781 | 0.834 | 0.79 | 0.99 | – | – | – | – | – | – | – | – | – | – | – | – | – | – | –
NCI-H1648 | – | – | – | – | – | 0.467 | 0.434 | 0.647 | 0.387 | 0.24 | – | 0.43 | 0.418 | 0.526 | 0.573 | – | – | – | – | –
NCI-H1703 | – | 0.411 | 0.335 | 0.366 | 0.365 | – | – | – | – | – | – | – | – | – | – | 0.875 | 1.03 | 0.684 | 0.365 | 0.229
NCI-H1792 | – | – | – | – | – | 0.498 | 0.407 | 0.267 | 0.174 | 0.0814 | – | – | – | – | – | 0.823 | 0.692 | 0.582 | 0.381 | 0.181
NCI-H2342 | 1.07 | 1.02 | 1.02 | 1.14 | 1.14 | 0.825 | 0.72 | 0.811 | 0.538 | 0.54 | 0.799 | 0.844 | 0.84 | 0.866 | 0.83 | – | – | – | – | –
SW 900 | 0.85 | 0.972 | 0.968 | 0.927 | 0.616 | 0.923 | 0.718 | 0.746 | 0.516 | 0.318 | 0.536 | 0.303 | 0.43 | 0.675 | 0.678 | – | – | – | – | –
